# Data published in article PMC8329280 (Scientific Reports, 2021).
# Entries after “also recorded” stand apart in the source; their conditions may differ. Starred links: 1 amine or outer side, 2 acyl side, 3 side chain; linkers in the order of their positions; H or OH if unused. Positions of bridges follow the written chain, without caps; N, C: chain ends. Non-standard residues stand in square brackets, D forms with d. Residues, ends and D or L forms follow the SMILES beside them. Chains are numbered I, II in the order given. No end group written: not given here. X1 = O=C1CC([*:1])C(=O)N1CCOCCOCCOCCN1C(=O)CC([*:2])C1=O; Dopa = N[C@@H](Cc1ccc(O)c(O)c1)C(=O)O
# Columns and labels:
# [1] = system: methicillin sensitive S. aureus (MSSA, strain 49775); format: cell-based, Staphylococcus aureus
# Method: (§1) Antibacterial assays were realized to the method previously reported[22],[25]. S. aureus strains were pre-cultured for 20 h in aerobic conditions at 37 °C in Mueller–Hinton Broth (MHB) medium (Becton–Dickinson Microbiology Company, Sparks, USA) (pH 7.4). Bacteria were suspended at absorbance of 0.001 at 620 nm in the MHB medium. Antibacterial activity was tested for 24 h incubation at 37 °C with shaking by measuring the inhibition of bacterial growth. Ten µl of final volumes (10–200 µg/mL) of synthetic peptides were incubated in microtitration plates with 90 µl of a mid-logarithmic phase culture of bacteria, with a starting absorbance of 0.001 at 620 nm. A mixture of Tetracycline (10 mg/L) and Cefotaxime (0.1 mg/L) were used as positive controls. Microbial growth was assessed by the increase of absorbance after 24 h incubation at 37 °C. The A620 nm value of control cultures growing in the absence of peptide and antibiotics was defined as 100% growth. A620 nm value with the antibiotics (Tetracycline and Cefotaxime) was taken as 100% inhibition. Absence of bacterial growth was verified by agar plate spreading. Each assay was performed in triplicates. Data were shown as mean + /− standard deviation of three independent experiments; p < 0.05.
# [2] = system: proteases produced by Staphylococcus aureus; settings: cited from earlier work
# Source text: In particular, CgA is an acidic glyco-phospho-protein stored in secretory vesicles of numerous nervous, neuroendocrine and immune cells. […] In a ...
# [3] = system: human intestinal epithelial cell (caco-2); settings: cited from earlier work
# [4] = system: human gingival fibroblast (HGF-1); settings: cited from earlier work
# [5] = system: Candida albicans; format: cell-based
# Method: (§2) The L- and D- forms of Ctl and also the corresponding L- and D-forms of the scramble peptides were tested by Atlangram (Nantes, France) against resistant Gram-negative bacteria (Escherichia coli, Klebsiella pneumoniae, Enterobacter cloacae, Enterobacter aerogenes, Serratia marcescens, Morganella morganii, Pseudomonas aeruginosa), MSSA, MRSA and yeast (C. albicans). The MICs were determined according to the CASFM/EUCAST 2018 (Comité de l’Antibiogramme de la Société Française de Microbiologie).
# [6] = system: Morganella morganii; format: cell-based
# Method: as §2
# [7] = system: Pseudomonas aeruginosa; format: cell-based
# Method: as §2
# [8] = system: Enterobacter cloacae; format: cell-based
# Method: as §2
# [9] = system: Serratia marcescens; format: cell-based
# Method: as §2
# [10] = system: MSSA; format: cell-based, Staphylococcus aureus
# Method: as §2
# [11] = system: MRSA; format: cell-based, Staphylococcus aureus
# Method: as §2
# [12] = system: Citrobacter freundii; format: cell-based
# [13] = system: Klebsiella pneumoniae; format: cell-based
# Method: as §2
# [14] = system: Enterobacter aerogenes; format: cell-based
# Method: as §2
# [15] = system: Escherichia coli; format: cell-based
# Method: as §2
# [16] = system: methicillin resistant S. aureus (MRSA, strain S1); test: Antibacterial growth inhibition assay, MRSA strain S1; format: cell-based, Staphylococcus aureus; settings: MHB medium pH 7.4, 24 h at 37 °C, A620 nm, triplicates
# Method: as §1
# [17] = system: Human Peripheral Blood Mononuclear Cells (PBMCs); test: Cytokine release assay, Bio-Plex Multiplex Immunoassay; format: cell-based; settings: 30 µM, 24 h, IL-6, IL-8, IL-10 pointed out, two healthy volunteers
# Source text: The release of cytokines IL-6, IL-8, IL-10 and TNF-α induced after the treatment of immune cells by Cts was realized by the use of an automated ELISA immunoassay (Immulite One, Siemens la Garenne-Colombe, France) and with the Bio-Plex Multiplex Immunoassay system (Bio-Rad, Marnes-la-Coquette) for the treatment of Human Peripheral Blood Mononuclear Cells (PBMCs) by L-Ctl, D-Ctl, Ctl-C, D-Ctl-C and P3. PBMCs from healthy volunteers were obtained from the blood transfusion centre of Strasbourg (Etablissement Français du Sang, Strasbourg) and isolated by density gradient centrifugation using Lymphoprep (Stemcell Technologies). PMBC were then maintained in AIM V medium (Thermo Fisher Scientific, Waltham, MA, USA) at 37 °C in a 5% CO2 humidified incubator and treated for 24 h with 30 µM of each peptide (L-Ctl, D-Ctl, Ctl-C, D-Ctl-C and P3). Three technical replicates were performed for each condition. Supernatants were then filtered and assessed for cytokine dosage according to the manufacturer’s instructions.
# [18] = system: C. albicans (ATCC 10231TM); test: Antimicrobial assay against C. albicans ATCC 10231; format: cell-based, Candida albicans; settings: Sabouraud medium, 24 h at 37 °C, OD620nm, lowest concentration inhibiting 100% of growth
# Method: Antimicrobial assays against C. albicans (ATCC 10231TM) were realized according to the method previously reported. C. albicans was cultured in Sabouraud medium (Sigma-Aldrich, Saint Louis, USA) supplemented with tetracycline (10 μg/mL) and cefotaxime (10 μg/mL) at 37 °C for 24 h. C. albicans (OD620nm = 0.001) were plated in 96-well plates and treated either with different concentrations of the peptides of interest, and/or with different concentrations of voriconazole (VCZ) (Sigma-Aldrich, Saint Louis, USA). As a positive control, cells were treated with 10 μg/mL VCZ. After 24 h incubation, yeast growth was assessed by optical density OD620nm using a spectrophotometer Multiskan EX Microplate Reader Lab (Thermo Fisher Scientific, Waltham, MA, USA).
# The MIC of the antifungal agents is defined as the lowest concentration of drug able to inhibit 100% of the growth of C. albicans.
# [19] = system: S. aureus 25923 (MSSA); format: cell-based, Staphylococcus aureus; settings: 25923, 24 h
# Method: as §1
# [20] = system: S. aureus V8; format: cell-based, Staphylococcus aureus; settings: V8, 24 h
# Method: as §1
# [21] = target: Endoprotease Glu-C from S. aureus V8 (E.C. 3.4.21.19) (Staphylococcus aureus, UniProt P0C1U8); settings: 50 mM Tris–HCl pH 8.2, 37 °C, enzyme added for 4 h then same amount for 18 h; RP-HPLC, optical density at 214 nm
# Chain of Endoprotease Glu-C from S. aureus V8 (E.C. 3.4.21.19) (P0C1U8 69-336): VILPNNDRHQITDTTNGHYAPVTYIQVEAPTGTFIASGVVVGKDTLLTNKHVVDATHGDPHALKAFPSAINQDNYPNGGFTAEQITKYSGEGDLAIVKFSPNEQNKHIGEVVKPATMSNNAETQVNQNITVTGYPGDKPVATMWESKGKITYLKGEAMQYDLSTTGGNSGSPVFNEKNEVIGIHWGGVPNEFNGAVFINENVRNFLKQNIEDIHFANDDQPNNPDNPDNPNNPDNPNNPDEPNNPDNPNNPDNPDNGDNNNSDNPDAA
# Method: Endoprotease Glu-C from S. aureus V8 (E.C. 3.4.21.19) was provided from Sigma Aldrich (Saint Louis, USA). Digestion of DOPA5T-Ctl (12.5 µg) by endoprotease Glu-C (Sigma-Aldrich Chemie Saint Quentin Fallavier, France) (3.5 µg) was obtained for 18 h at 37 °C in 50 mM Tris–HCl pH 8.2 or PBS[28]. Enzyme (1.75 µg) was added for a digestion of 4 h and then the same amount was added for 18 h. The enzymatic digestion was stopped by addition of 25 µL of 0.1% (vol/vol) TFA in milliQ water. The fragments resulting from enzymatic digestion were isolated with a RP-HPLC with a Dionex HPLC system on a Vydac 208 TP C8 column (3 × 250 mm), and identified by Maldi-tof mass spectrometry, as previously reported for the characterization of the synthetic peptides.
compound,measurement,setting,value
"RSMRLSFRARGYGFR [Ctl, Cateslytin]",MIC MSSA,"[1]; methicillin sensitive (, strain 49775, 20 h)",93.0 µg/mL
same,degradation by the proteases produced by Staphylococcus aureus,[2],resistant to degradation
same,toxicity for caco-2,[3],not toxic
same,toxicity for HGF-1,[4],not toxic
same,MIC,[5],512 µg/mL
same,MIC,[6],> 128 µg/mL
same,MIC,[7],> 128 µg/mL
same,MIC,[8],> 128 µg/mL
same,MIC,[9],> 128 µg/mL
same,MIC,[10],> 128 µg/mL
same,MIC,[11],> 128 µg/mL
"FMRLRYRSSAFGGRR [Control L, reference compound]",MIC,[12],> 128 µg/mL
same,MIC,[13],> 128 µg/mL
same,MIC,[5],512 µg/mL
same,MIC,[6],> 128 µg/mL
same,MIC,[14],> 128 µg/mL
same,MIC,[15],> 128 µg/mL
same,MIC,[7],> 128 µg/mL
same,MIC,[8],> 128 µg/mL
same,MIC,[9],> 128 µg/mL
same,MIC,[10],> 128 µg/mL
same,MIC,[11],> 128 µg/mL
CSCC[C@H](NC(=O)[C@H](CO)NC(=O)[C@@H](N)CCCNC(=N)N)C(=O)N[C@@H](CCCNC(=N)N)C(=O)N[C@@H](CC(C)C)C(=O)N[C@@H](CO)C(=O)N[C@@H](Cc1ccccc1)C(=O)N[C@@H](CCCNC(=N)N)C(=O)N[C@@H](C)C(=O)N[C@@H](CCCNC(=N)N)C(=O)NCC(=O)N[C@@H](Cc1ccc(O)cc1)C(=O)NCC(=O)N[C@@H](Cc1ccccc1)C(=O)N[C@@H](CCCNC(=N)N)C(=O)N[C@@H](CSC1CC(=O)N(CCOCCOCCOCCN2C(=O)CC(SC[C@H](NC(=O)[C@H](CCCNC(=N)N)NC(=O)[C@H](Cc3ccccc3)NC(=O)CNC(=O)[C@H](Cc3ccc(O)cc3)NC(=O)CNC(=O)[C@H](CCCNC(=N)N)NC(=O)[C@H](C)NC(=O)[C@H](CCCNC(=N)N)NC(=O)[C@H](Cc3ccccc3)NC(=O)[C@H](CO)NC(=O)[C@H](CC(C)C)NC(=O)[C@H](CCCNC(=N)N)NC(=O)[C@H](CCSC)NC(=O)[C@H](CO)NC(=O)[C@@H](N)CCCNC(=N)N)C(=O)O)C2=O)C1=O)C(=O)O (stereo partly shown) [Peptide P3] (I: H-RSMRLSFRARGYGFRC-OH / II: H-RSMRLSFRARGYGFRC-OH; linker I:16-II:16 via X1; N-terminus and C-terminus assumed),MIC100 MSSA,"[1]; MSSA strain 49775, MHB medium pH 7.4, 24 h at 37 °C, A620 nm, triplicates",30 µM
same,MIC100 MRSA,[16],50 µM
same,release of the tested cytokines from PBMCs,[17],unable to induce te release of the tested cytokines; also recorded: unable to release significantly the tested cytokines
same,MIC100 C. albicans,[18],20 µM
CSCC[C@H](NC(=O)[C@H](CO)NC(=O)[C@H](CCCNC(=N)N)NC(=O)[C@H](CCC(=O)O)NC(=O)CNC(=O)CNC(=O)[C@H](CCCNC(=N)N)NC(=O)[C@H](CC(C)C)NC(=O)[C@@H](NC(=O)[C@H](Cc1ccc(O)c(O)c1)NC(=O)[C@H](CCCCN)NC(=O)[C@H](Cc1ccc(O)c(O)c1)NC(=O)[C@H](CCCCN)NC(=O)[C@@H](N)Cc1ccc(O)c(O)c1)[C@@H](C)O)C(=O)N[C@@H](CCCNC(=N)N)C(=O)N[C@@H](CC(C)C)C(=O)N[C@@H](CO)C(=O)N[C@@H](Cc1ccccc1)C(=O)N[C@@H](CCCNC(=N)N)C(=O)N[C@@H](C)C(=O)N[C@@H](CCCNC(=N)N)C(=O)NCC(=O)N[C@@H](Cc1ccc(O)cc1)C(=O)NCC(=O)N[C@@H](Cc1ccccc1)C(=O)N[C@@H](CCCNC(=N)N)C(=O)O [DOPA5T-Ctl] (H-[Dopa]K[Dopa]K[Dopa]TLRGGERSMRLSFRARGYGFR-OH),IC50,"[1]; methicillin sensitive (, strain 49775, 24 h)",45 µM
same,IC50,[19],20 µM
same,IC50,[20],65 µM
same,Ctl and its oxidized form released after Glu-C digestion,[21],76%
same,proteolysis by Glu-C endoprotease,[21],full proteolysis
